Laboratory results: patent US11931365B2, “Use of PPAR-delta agonists in the treatment of disease” (Reneo Pharmaceuticals, Inc., priority 2022, dated 2024)
Read-outs that look alike come from different tables or passages of the source. Values belong to the compound of their own block, whether it stands above or below them.

What was measured:
[1] = test system: healthy male volunteers, leg immobilization; assay: Phase 1 placebo-controlled study in healthy volunteers with single limb immobilization; type: in vivo, human; parameters: Change from baseline in muscle strength, mean: unit not given beside the values
Method: In a prior clinical trial in healthy volunteers, Compound I was administered at dose of 100 mg twice daily for 28 days in healthy volunteers during and after a single limb immobilization (see NCT01524406). The study was conducted to evaluate the impact of Compound I on the recovery of muscle atrophy from leg immobilization, and improvements in cross section area (CSA) and muscle strength parameters expected in patients treated with study drug compared to those given placebo.
This phase 1, randomized, parallel group, placebo-controlled study was conducted at 2 centers in the United States. Fifty participants were planned for enrollment, 25 per group; participants could be replaced upon sponsor approval.
Screening was conducted 28 days before study start; eligibility was reviewed again at prespecified times during the study. Ambulatory, non-smoking, healthy male volunteers 30 to 55 years of age with a Body Mass Index (BMI) from 18 to 30 kg/m2 were recruited for the study. Key exclusion criteria included abnormal laboratory values at screening, a recent history of body weight fluctuations, positive urine drug screens, drug dependency or illicit drug use, professional sport participation within 30 days of screening, donation of whole blood within 90 days of dosing, and donation of plasma within 30 days of dosing. Concomitant medications within 14 days of dosing were not allowed unless approved by the sponsor. Those who had enrolled in another clinical trial within 90 days or had previously received Compound II were not allowed to participate.
Participants were randomly assigned 1:1 to receive either Compound II (100 mg BID) or matching placebo for 28 days using a computer generated randomization schedule provided by the sponsor. The principal investigator, study center staff, and participants were blinded to treatment; the protocol was amended so that sponsor personnel were not blinded. This change was made to allow investigation of observations concerning adherence to the protocol, discussed further in the pharmacodynamic results. Compound II and placebo were provided as capsules identical in appearance, taken orally with 240 ml of water prior to meals. Study drug was administered at the study site on Days 1 (PM dose), 6 (AM dose), 13 (PM dose), and 14, 15, 16, 29 (AM doses). At all other times study drug was self-administered just before breakfast and dinner. Dates and times were recorded in a diary, with compliance determined from the diaries and capsule counts. Study drug supplies were packaged according to the randomization codes by a contract research organization. Each dispensed bottle was labeled with the randomization number. Individual capsules were re-dispensed from these bottles by the study site staff, maintaining the blind. The total study duration for each subject was 42 days. Participants stayed overnight from Day 1 and Days 13 to 16.
Standardized meals, beverages and snacks were provided during the domicile periods. On Day 1, participants were leg-immobilized using a knee brace with […] on the left leg to allow driving. Walking crutches were provided to prevent weight bearing on the immobilized leg. An accelerometer was issued at screening and was used to count the number of steps per day. Participants were to walk 4000 to 6000 steps each day for the duration of the leg immobilization period, and recorded accelerometer readings each evening before bedtime. The brace was removed on Day 14, and participants resumed normal physical activity gradually from Days 16 to 29. After stopping study drug on Day 29, participants were to resume regular daily activity gradually for another 2 weeks. Consumption of prescribed medications or over the counter products was prohibited from 14 days prior to dosing and throughout the study, with the exception of the treatment of an adverse event. Participants were not to consume alcohol or caffeine containing food and beverages 3 days before each study visit and domicile periods. […]

[2] = Stability of solid state forms (storage, drying), XRPD; type: physicochemical; conditions: for XRPD after static storage: 40° C./75% RH for 10 days; for XRPD after ambient storage: 24 hours, 48 hours, 7 days, or 10 days
Method: Samples were assessed for stability under ambient or static storage conditions of 25° C./[…] and 40° C./75% RH for 7 or 10 days. The samples were then re-analyzed by XRPD. Subsequent XRPD analysis results for the crystalline forms are described below: […]

[3] = Gravimetric Vapor Sorption (GVS); type: physicochemical; conditions: 25° C., w/w
Method: Sorption isotherms were obtained using a SMS DVS Intrinsic moisture sorption analyzer, controlled by DVS Intrinsic Control software. The sample temperature was maintained at 25° C. by the instrument controls. The humidity was controlled by mixing streams of dry and wet nitrogen, with a total flow rate of 200 ml/min. The relative humidity was measured by a calibrated Rotronic probe (dynamic range of 1.0-100% RH), located near the sample. The weight change, (mass relaxation) of the sample as a function of % RH was constantly monitored by a microbalance (accuracy ±0.005 mg).
Typically, 5-30 mg of sample was placed in a tared mesh stainless steel basket under ambient conditions. The sample was loaded and unloaded at 40% RH and 25° C. (typical room conditions). A moisture sorption isotherm was performed as outlined below (2 scans per complete cycle). The standard isotherm was performed at 25° C. at 10% RH intervals over a 0-90% RH range. Typically, a double cycle (4 scans) was carried out. Data analysis was carried out within Microsoft Excel using the DVS Analysis Suite.

[4] = XRPD re-analysis after GVS isotherm; type: physicochemical; conditions: after isotherm at 90% RH and 25° C.
Method: The samples were recovered after completion of the isotherm experiment at 90% RH and 25° C. and re-analyzed by XRPD.

[5] = test system: VLCAD deficient cell line FB833; conditions: FB833 cells; WO18093839; cited from earlier work
mice = conditions: cited from earlier work; for oxidative muscle fibers (and mitochondrial biogenesis) / physical performance / running endurance: combined with exercise
CPT2-deficient myoblasts = conditions: Djouadi 2005; cited from earlier work
[6] = listed as crystalline Form 2 of Compound II
[7] = listed as crystalline Form 3 of Compound II
[8] = listed as crystalline Pattern 9 of Compound II
[9] = listed as amorphous Compound II

SMILES: Cc1cc(OC/C=C(/c2ccc(F)cc2)c2ccc(C#CCN3CCOCC3)cc2)ccc1OCC(=O)[O-].[Na+] [Compound II, sodium (E)-2-(4-((3-(4-fluorophenyl)-3-(4-(3-morpholinoprop-1-yn-1-yl)phenyl)allyl)oxy)-2-methylphenoxy)acetate]
participants discontinued due to an adverse event of elevated CK ([1]; 100 mg BID): 8.3%
Change from baseline in muscle strength, mean ([1]; Day 14, 100 mg BID): −5.86
Change from baseline in muscle strength, mean ([1]; Day 21, 100 mg BID): 32.82
Change from baseline in muscle strength, mean ([1]; Day 29, 100 mg BID): 25.58
Change from baseline in muscle strength, mean ([1]; Day 42, 100 mg BID): 37.96
increase from baseline in PDK4, ANGPTL4 and SLC25A34 expression ([1]; muscle biopsies, from Day 14): up to 3.5 fold

SMILES: Cc1cc(OC/C=C(/c2ccc(F)cc2)c2ccc(C#CCN3CCOCC3)cc2)ccc1OCC(=O)[O-].[Na+] [Form 2, sodium (E)-2-(4-((3-(4-fluorophenyl)-3-(4-(3-morpholinoprop-1-yn-1-yl)phenyl)allyl)oxy)-2-methylphenoxy)acetate]
XRPD form after storage ([2]; 25° C./97% RH/7 days): Unchanged (Form 2)
XRPD form after storage ([2]; 25° C./97% RH/7 days, listed as crystalline Form 2 of Compound II): unchanged
XRPD form after storage ([2]; 40° C./75% RH/7 days): Unchanged (Form 2)
XRPD form after storage ([2]; 40° C./75% RH/7 days, listed as crystalline Form 2 of Compound II): unchanged
Reversible Water Uptake between 0-90% RH [3]: ~25%
Reversible Water Uptake between 0-90% RH [3, 6]: ~25%
Solid State Form After GVS (XRPD) [4]: Unchanged (Form 2)
Solid State Form After GVS (XRPD) [4, 6]: unchanged

SMILES: Cc1cc(OC/C=C(/c2ccc(F)cc2)c2ccc(C#CCN3CCOCC3)cc2)ccc1OCC(=O)[O-].[Na+] [Form 3, sodium (E)-2-(4-((3-(4-fluorophenyl)-3-(4-(3-morpholinoprop-1-yn-1-yl)phenyl)allyl)oxy)-2-methylphenoxy)acetate]
XRPD form after storage ([2]; 40° C./75% RH/7 days): Form 1
XRPD form after storage ([2]; 40° C./75% RH/7 days, listed as crystalline Form 3 of Compound II): converts to Form 1
form change on drying [2]: converts to Form 1
form change on standing ([2]; standing in ambient conditions): converts to Form 1
Reversible Water Uptake between 0-90% RH [3]: ~9.0%
Reversible Water Uptake between 0-90% RH [3, 7]: ~9.0%
Solid State Form After GVS (XRPD) [4]: Form 1
Solid State Form After GVS (XRPD) [4, 7]: converts to Form 1

SMILES: Cc1cc(SCc2sc(-c3ccc(C(F)(F)F)c(F)c3)nc2C)ccc1OCC(=O)O [GW0742, [4-[[[2-[3-Fluoro-4-(trifluoromethyl)phenyl]-4-methyl-5-thiazolyl]methyl]thio]-2-methylphenoxy]acetic acid]
VLCAD enzyme activity [5]: increase

SMILES: Cc1cc(SCc2sc(-c3ccc(C(F)(F)F)cc3)nc2C)ccc1OCC(=O)O [GW501516, 2-[2-Methyl-4-[[[4-methyl-2-[4-(trifluoromethyl)phenyl]-5-thiazolyl]methyl]thio]phenoxy]acetic acid]
VLCAD enzyme activity [5]: increase
energy substrate usage (mice; 8 weeks): clear shift in energy substrate usage from glucose to fatty acid oxidation
oxidative muscle fibers (and mitochondrial biogenesis) (mice; listed as GW1516): synergistically induced
physical performance / running endurance (mice; listed as GW1516): enhanced
oxidative muscle fibers (and mitochondrial biogenesis) (mice): increase
physical performance / running endurance (mice): enhance

SMILES: CC(C)(Sc1ccc(CCN(CCCCC2CCCCC2)C(=O)NC2CCCCC2)cc1)C(=O)O [GW 7647]
FAO (CPT2-deficient myoblasts): had no effect

SMILES: CCCc1c(OCCCOc2ccc(OCC(=O)O)cc2)ccc(C(C)=O)c1O [L-165,0411, [4-[3-(4-Acetyl-3-hydroxy-2-propylphenoxy)propoxy]phenoxy]acetic acid]
VLCAD enzyme activity [5]: increase

Other lines, results leading:

form change on drying [2]: converts to Form 1
Reversible Water Uptake between 0-90% RH [3]: ~11%
Solid State Form After GVS (XRPD) [4]: Form 1
Solid State Form After GVS (XRPD) ([4]; listed as crystalline Form 5 of Compound II): converts to Form 1
SMILES: Cc1cc(OC/C=C(/c2ccc(F)cc2)c2ccc(C#CCN3CCOCC3)cc2)ccc1OCC(=O)[O-].[Na+] [Form 5, sodium (E)-2-(4-((3-(4-fluorophenyl)-3-(4-(3-morpholinoprop-1-yn-1-yl)phenyl)allyl)oxy)-2-methylphenoxy)acetate]

stability of the solid form [2]: unstable
SMILES: Cc1cc(OC/C=C(/c2ccc(F)cc2)c2ccc(C#CCN3CCOCC3)cc2)ccc1OCC(=O)[O-].[Na+] [Pattern 5, sodium (E)-2-(4-((3-(4-fluorophenyl)-3-(4-(3-morpholinoprop-1-yn-1-yl)phenyl)allyl)oxy)-2-methylphenoxy)acetate]

form change on drying [2]: converts to Form 1
SMILES: Cc1cc(OC/C=C(/c2ccc(F)cc2)c2ccc(C#CCN3CCOCC3)cc2)ccc1OCC(=O)[O-].[Na+] [Pattern 8, sodium (E)-2-(4-((3-(4-fluorophenyl)-3-(4-(3-morpholinoprop-1-yn-1-yl)phenyl)allyl)oxy)-2-methylphenoxy)acetate]

Reversible Water Uptake between 0-90% RH [3]: ~27%
Reversible Water Uptake between 0-90% RH [3, 8]: ~27%
Solid State Form After GVS (XRPD) [4]: Unchanged (Pattern 9)
Solid State Form After GVS (XRPD) [4, 8]: unchanged
SMILES: Cc1cc(OC/C=C(/c2ccc(F)cc2)c2ccc(C#CCN3CCOCC3)cc2)ccc1OCC(=O)[O-].[Na+] [Pattern 9, sodium (E)-2-(4-((3-(4-fluorophenyl)-3-(4-(3-morpholinoprop-1-yn-1-yl)phenyl)allyl)oxy)-2-methylphenoxy)acetate]

XRPD after static storage [2, 9]: unchanged
XRPD after static storage ([2]; listed as amorphous solid form): no change
XRPD after ambient storage [2, 9]: unchanged
XRPD after ambient storage ([2]; listed as amorphous solid form): no change
SMILES: Cc1cc(OC/C=C(/c2ccc(F)cc2)c2ccc(C#CCN3CCOCC3)cc2)ccc1OCC(=O)[O-].[Na+] [amorphous, sodium (E)-2-(4-((3-(4-fluorophenyl)-3-(4-(3-morpholinoprop-1-yn-1-yl)phenyl)allyl)oxy)-2-methylphenoxy)acetate]
